Patent US10392383B2, “3-(1H-benzo[d]imidazol-2-yl)-1H-pyrazolo[4,3-b]pyridines and therapeutic uses thereof” (Samumed, LLC, priority 2015, dated 2019)

Columns and labels:
Assay type in all cases: cell-based
IL-6 (THP-1 cells) = assay: IL-6 inhibition in LPS-stimulated THP-1 monocytes (HTRF); conditions: Homo sapiens, IL-6 HTRF; for EC50: 500 ng/mL LPS, Table 6; for inhibition at 10 µM: LPS, Table 6, read-out: percent inhibition at 10 μM (given in parentheses for EC50 >10 μM)
Procedure, shortened: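 THP-1 cells in 1% FBS pre-incubated 2 h with compound (10-point 1:3 series from 10 μM, 0.1% DMSO), then stimulated with 500 ng/mL LPS for 22 h at 37 °C. IL-6 measured by HTRF 665/620 ratio, normalized to DMSO; EC50 by four-parameter fit, or % inhibition at 10 μM when EC50 >10 μM.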

[1] = tested on: Wnt activity (Sp5-Luc reporter, Wnt-responsive promoter) in SW480 colon carcinoma cells; assay: Wnt activity screening assay: Sp5-Luc reporter gene assay in SW480 cells; conditions: Homo sapiens; for inhibition at 10 µM: read-out: percent inhibition at 10 μM (given for EC50 of >10 μM); for EC50: overnight incubation, 10-point curve starting from 10 μM
Procedure, shortened: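 Luminescence (BrightGlo) was normalised to DMSO-only wells and fitted with a four-parameter variable-slope model for EC50; beyond 10 μM, % inhibition at 10 μM is given. Stable Sp5-Luc SW480 reporter cells, 4,000/well in 1% FBS, were exposed overnight at 37 °C to compounds, top 10 μM, 1:3 dilutions, 0.1% DMSO.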

SW480 colon cancer cells = assay: Cell viability assay (CellTiter-Blue) in SW480 cells; conditions: Homo sapiens, 96 h, four days; for inhibition at 10 µM: read-out: percent inhibition at 10 μM (given for EC50 of >10 μM); for EC50: CellTiter-Blue, 10 μM to 0.0045 μM
Procedure, shortened: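 4-day exposure, 37 °C/5% CO2; ~2×10^3 SW480 cells/well; 8-pt 1:3 curve, 10–0.0045 μM, duplicates vs DMSO controls. Resazurin→resorufin fluorescence readout, ~3 h. EC50 by nonlinear fit; if >10 μM, % inhibition at 10 μM reported.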

Compound	EC50 (IL-6 (THP-1 cells)) [µM]	EC50 [1] [µM]	EC50 (SW480 colon cancer cells) [µM]	inhibition at 10 µM [1] [%]	inhibition at 10 µM (SW480 colon cancer cells) [%]	inhibition at 10 µM (IL-6 (THP-1 cells)) [%]
CN1CCN(c2cccc3[nH]c(-c4n[nH]c5ccc(-c6cncnc6)nc45)nc23)CC1 [Compound 251, 3-(4-(4-Methylpiperazin-1-yl)-1H-benzo[d]imidazol-2-yl)-5-(pyrimidin-5-yl)-1H-pyrazolo[4,3-b]pyridine]	2.23	> 10	> 10	4.7	0	
NC1CN(c2cncc(-c3ccc4[nH]nc(-c5nc6c(-c7ccc(Cl)s7)cccc6[nH]5)c4n3)n2)C1 [Compound 1068, 1-(6-(3-(4-(5-Chlorothiophen-2-yl)-1H-benzo[d]imidazol-2-yl)-1H-pyrazolo [4,3-b]pyridin-5-yl)pyrazin-2-yl)azetidin-3-amine]	> 10	1.24	0.953			42.7
CN1CCN(c2cccc3[nH]c(-c4n[nH]c5ccc(-c6cnccn6)nc45)nc23)CC1 [Compound 648, 3-(4-(4-Methylpiperazin-1-yl)-1H-benzo[d]imidazol-2-yl)-5-(pyrazin-2-yl)-1H-pyrazolo[4,3-b]pyridine]	0.0695	> 10	9.1	37.9		
Cc1cn(-c2cccc3[nH]c(-c4n[nH]c5ccc(C6=CCNCC6)nc45)nc23)cn1 [Compound 618, 3-(4-(4-Methyl-1H-imidazol-1-yl)-1H-benzo[d]imidazol-2-yl)-5-(1,2,3,6-tetrahydropyridin-4-yl)-1H-pyrazolo[4,3-b]pyridine]	> 10	> 10	> 10	1.2	7.4	42
Cc1ncc(-c2ccc3[nH]nc(-c4nc5c(-c6cc(F)cc(NCCN(C)C)c6)cccc5[nH]4)c3n2)n1C [Compound 781, N^1-(3-(2-(5-(1,2-Dimethyl-1H-imidazol-5-yl)-1H-pyrazolo[4,3-b]pyridin-3-yl)-1H-benzo[d]imidazol-4-yl)-5-fluorophenyl)-N^2,N^2-dimethylethane-1,2-diamine]	0.164	0.48	0.549			
Cn1cc(-c2ccc3[nH]nc(-c4nc5c(-c6cccs6)cccc5[nH]4)c3n2)cn1 [Compound 700, 5-(1-Methyl-1H-pyrazol-4-yl)-3-(4-(thiophen-2-yl)-1H-benzo[d]imidazol-2-yl)-1H-pyrazolo[4,3-b]pyridine]	> 10	> 10	> 10	37.8	27.3	27.4
CN(C)Cc1cncc(-c2ccc3[nH]nc(-c4nc5c(N6CCCCC6)cccc5[nH]4)c3n2)c1 [Compound 181, N,N-dimethyl-1-(5-(3-(4-(piperidin-1-yl)-1H-benzo[d]imidazol-2-yl)-1H-pyrazolo[4,3-b]pyridin-5-yl)pyridin-3-yl)methanamine]	4.94	1.89	1.14			

More lines, main results first:

EC50 (IL-6 (THP-1 cells)) [µM]	EC50 [1] [µM]	EC50 (SW480 colon cancer cells) [µM]	Compound	inhibition at 10 µM [1] [%]	inhibition at 10 µM (SW480 colon cancer cells) [%]	inhibition at 10 µM (IL-6 (THP-1 cells)) [%]
0.812	3.25	4.13	COc1cccc(-c2cccc3[nH]c(-c4n[nH]c5ccc(-c6cncc(NC(=O)Cc7ccccc7)c6)nc45)nc23)c1 [Compound 1000, N-(5-(3-(4-(3-Methoxyphenyl)-1H-benzo[d]imidazol-2-yl)-1H-pyrazolo[4,3-b]pyridin-5-yl)pyridin-3-yl)-2-phenylacetamide]			
> 10	3.78	> 10	CC(C)C(=O)Nc1cncc(-c2ccc3[nH]nc(-c4nc5c(-c6cccnc6)cccc5[nH]4)c3n2)c1 [Compound 93, N-(5-(3-(4-(Pyridin-3-yl)-1H-benzo[d]imidazol-2-yl)-1H-pyrazolo[4,3-b]pyridin-5-yl)pyridin-3-yl)isobutyramide]		29.9	42.5
> 10	> 10	> 10	Oc1cncc(-c2ccc3[nH]nc(-c4nc5ccccc5[nH]4)c3n2)c1 [Compound 661, 5-(3-(1H-Benzo[d]imidazol-2-yl)-1H-pyrazolo[4,3-b]pyridin-5-yl)pyridin-3-ol]	32.4	29.2	50.9
> 10	2.41	5.91	COc1cccc(-c2cccc3[nH]c(-c4n[nH]c5ccc(-c6cncc(NC(=O)CC(C)(C)C)c6)nc45)nc23)c1 [Compound 1006, N-(5-(3-(4-(3-methoxyphenyl)-1H-benzo[d]imidazol-2-yl)-1H-pyrazolo[4,3-b]pyridin-5-yl)pyridin-3-yl)-3,3-dimethylbutanamide]			23.8
2.07	3.11	3.56	CN(C)CCNc1cc(F)cc(-c2cccc3[nH]c(-c4n[nH]c5ccc(-c6cncc(OCCN7CCCC7)c6)nc45)nc23)c1 [Compound 786, N^1-(3-Fluoro-5-(2-(5-(5-(2-(pyrrolidin-1-yl)ethoxy)pyridin-3-yl)-1H-pyrazolo[4,3-b]pyridin-3-yl)-1H-benzo[d]imidazol-4-yl)phenyl)-N^2,N^2-dimethylethane-1,2-diamine]			
0.389	1.08	0.547	Fc1ccc(-c2cccc3[nH]c(-c4n[nH]c5ccc(-c6cncc(CN7CCCC7)c6)nc45)nc23)cc1 [Compound 42, 3-(4-(4-Fluorophenyl)-1H-benzo[d]imidazol-2-yl)-5-(5-(pyrrolidin-1-ylmethyl)pyridin-3-yl)-1H-pyrazolo[4,3-b]pyridine]			
0.0518	0.892	4.36	O=C(Nc1cncc(-c2ccc3[nH]nc(-c4nc5c(-c6ccccc6F)cccc5[nH]4)c3n2)c1)C(F)(F)F [Compound 1126, 2,2,2-Trifluoro-N-(5-(3-(4-(2-fluorophenyl)-1H-benzo[d]imidazol-2-yl)-1H-pyrazolo[4,3-b]pyridin-5-yl)pyridin-3-yl)acetamide]			
0.929	> 10	> 10	O=C(CC1CCNCC1)Nc1cncc(-c2ccc3[nH]nc(-c4nc5c(-c6ccccn6)cccc5[nH]4)c3n2)c1 [Compound 593, 2-(Piperidin-4-yl)-N-(5-(3-(4-(pyridin-2-yl)-1H-benzo[d]imidazol-2-yl)-1H-pyrazolo[4,3-b]pyridin-5-yl)pyridin-3-yl)acetamide]	26.6	13.6	
1.09	> 10	> 10	O=C(Cc1ccccc1)Nc1cncc(-c2ccc3[nH]nc(-c4nc5ccccc5[nH]4)c3n2)c1 [Compound 262, N-(5-(3-(1H-Benzo[d]imidazol-2-yl)-1H-pyrazolo[4,3-b]pyridin-5-yl)pyridin-3-yl)-2-phenylacetamide]	11.2	13.9	
> 10	> 10	> 10	CS(=O)(=O)NCc1cc(F)cc(-c2cccc3[nH]c(-c4n[nH]c5ccc(-c6cncc(NC(=O)CC7CCNCC7)c6)nc45)nc23)c1 [Compound 769, N-(5-(3-(4-(3-Fluoro-5-(methylsulfonamidomethyl)phenyl)-1H-benzo[d]imidazol-2-yl)-1H-pyrazolo[4,3-b]pyridin-5-yl)pyridin-3-yl)-2-(piperidin-4-yl)acetamide]	12.3	0	25.4
